Assays:
[1] = test system: healthy volunteers; test: Euglycaemic glucose clamp (glucose infusion rate) after single SC dose in healthy volunteers; assay type: in vivo, human
Protocol: In all treatment periods, subjects undergo a euglycaemic clamp procedure for up to 24/36 hours following each insulin compound injection. Glucose infusion rates (GIR) are adjusted to maintain euglycaemia, with the documented GIR over time providing the GD measure of insulin action. The aim of the euglycaemic glucose clamp is to maintain euglycaemia through glucose infusion after the administration of a dose of an insulin compound. It is assumed that endogenous insulin secretion and hepatic glucose output are minimal and that any glucose that is translocated out of the glucose space (i.e., glucose metabolized) is the direct consequence of the administered exogenous insulin. The GIR in this case will be the glucodynamic (GD) measure of the insulin action over time. All glucose clamp studies are performed after an overnight fast of approximately 8 hours. On the morning of the study, a small catheter is placed into a vein of one arm, ideally in the ante-cubital fossa, for administration of 20% dextrose solution (buffered to near neutral pH) under the control of a volumetric pump. Another catheter is placed, ideally in the wrist or hand for venous glucose sampling. This area is heated with a warming device to approximately 55-60° C. for sampling arterialized venous blood. Blood samples are obtained at the bedside for immediate determination of whole blood glucose concentrations using an automated glucose oxidase technique. After basal blood sampling and a stabilization period of approximately 30 minutes, each subject receives a dose of insulin compound administered subcutaneously. The start of the subcutaneous injection of an insulin compound is defined as time zero. Following completion of dosing, in conjunction with frequent blood sampling for measurement of blood glucose, glucose is infused intravenously at a variable rate in order to maintain euglycaemia for up to 24 or 36 hours after insulin administration.
Blood sampling occurs approximately every 10 minutes for approximately 30 minutes prior to dosing and continued every 5-10 minutes for the first 2 hours after dosing (with the option to sample as frequently as every 2.5 minutes), and then reduced to 10-30 minute intervals up to the end of clamp.
During the glucose clamp, the glucose infusion rate is adjusted to maintain a pre-determined target blood glucose concentration for the individual subject. Preferably, the target concentration is close to the fasting blood glucose. The aim of the glucose clamp procedure is to maintain the blood glucose concentrations within +5% of the pre-dose target value, which is defined as 5 mg/dL below the mean fasting blood glucose. Thus, blood glucose concentrations are kept constant while the GIR varied. […]

[2] = calculated from published PK profiles; cited from earlier work

Substance | GIR profile shape ([1]; Part C, 0.5 mg/kg) | time GD maintained ([1]; Part C, 0.5 mg/kg) | GIR compared with peak GIR response for glargine ([1]; Part C, 0.5 mg/kg, glargine 0.5 U/kg, data not shown) | duration of action compared with insulin glargine ([1]; humans, FIG. 2: LY 0.225 mg/kg, glargine 0.5 U/kg) | peak-trough (PT) ratio [2]
LY: 20 kDa PEGylated insulin lispro, about 95% or more at B28 and 5% or less at A1, prepared as in Example 9 | “peakless” | greater than 36 hours | exceeded the peak GIR response for glargine | longer than that of insulin glargine | 
glargine |  |  |  |  | 1.2-2.6

From patent publication US9050371B2 (Eli Lilly and Company, priority 2008, dated 2015)
